Measured values published in patent US12486240B2, “Oxadiazole compounds for controlling or preventing phytopathogenic fungi” (PI INDUSTRIES LTD., priority 2019, dated 2025).

Assays:
[1] = test system: Rhizoctonia solani; test: Rhizoctonia solani mycelial radial growth test on potato dextrose agar; assay type: cell-based; details: 300 ppm, 25° C., 60% relative humidity, seven days
[2] = test system: Phakopsora pachyrhizi; test: Phakopsora pachyrhizi test on soybean (preventive spray); assay type: in vivo; details: preventive spray on soybean plants, inoculated one day after treatment, rated 3, 7, 10 and 15 days after application, read-out: Efficacy (% control) from disease severity rating versus untreated control
Procedure: Example 5: Phakopsora pachyrhizi Test on Soybean Compounds were dissolved in 2% dimethyl sulfoxide/acetone and then mixed with water containing an emulsifier to a calibrated spray volume of 50 mL. This 50 mL spray solution was poured into spray bottles for further applications. To test the preventive activity of compounds, healthy young Soybean plants raised in the greenhouse were sprayed with the active compound preparation at the stated application rates inside the spray cabinets using hollow cone nozzles. One day after treatment, the plants were inoculated with a spore suspension containing 2×10^5 Phakopsora pachyrhizi conidia. The inoculated plants were then kept in a greenhouse chamber at 22-24° C. temperature and 80-90% relative humidity for disease expression. A visual assessment of the compound's performance was carried out by rating the disease severity (0-100% scale) on treated plants 3, 7, 10 and 15 days after application. Efficacy (% control) of the compounds was calculated by comparing the disease rating in the treatment with the one of the untreated control. The sprayed plants were also assessed for plant compatibility by recording symptoms like necrosis, chlorosis and stunting.

[3] = test system: Botrytis cinerea; test: Botrytis cinerea mycelial radial growth test on potato dextrose agar; assay type: cell-based; details: 300 ppm, 22° C., 90% relative humidity, seven days

Structure (SMILES): CCN(C)c1c(Nc2ccc(-c3noc(C(F)(F)F)n3)cc2)c(=O)c1=O [Compound 3, 3-(ethyl(methyl)amino)-4-((4-(5-(trifluoromethyl)-1,2,4-oxadiazol-3-yl)phenyl)amino)cyclobut-3-ene-1,2-dione]
- control (radial growth compared to untreated control) [1]: ≥ 70%
- pest or weed control at 500 ppm [2]: ≥ 70%

Structure (SMILES): COCCN(C)c1c(Nc2ccc(-c3noc(C(F)(F)F)n3)cc2)c(=O)c1=O [Compound 7, 3-((2-methoxyethyl)(methyl)amino)-4-((4-(5-(trifluoromethyl)-1,2,4-oxadiazol-3-yl)phenyl)amino)cyclobut-3-ene-1,2-dione]
- control (radial growth compared to untreated control) [3]: ≥ 70%
- pest or weed control at 500 ppm [2]: ≥ 70%

Structure (SMILES): CCN(C)c1c(N(C)Cc2ccc(-c3noc(C(F)(F)F)n3)cc2)c(=O)c1=O [Compound 53, 3-(ethyl(methyl)amino)-4-(methyl(4-(5-(trifluoromethyl)-1,2,4-oxadiazol-3-yl)benzyl)amino)cyclobut-3-ene-1,2-dione]
- pest or weed control at 500 ppm [2]: ≥ 70%

Structure (SMILES): COC1CCN(c2c(N(C)Cc3ccc(-c4noc(C(F)(F)F)n4)cc3)c(=O)c2=O)C1 (centres unmarked) [Compound 54, 3-(3-methoxypyrrolidin-1-yl)-4-(methyl(4-(5-(trifluoromethyl)-1,2,4-oxadiazol-3-yl)benzyl)amino)cyclobut-3-ene-1,2-dione]
- pest or weed control at 500 ppm [2]: ≥ 70%

Structure (SMILES): CN(Cc1ccc(-c2noc(C(F)(F)F)n2)cc1)c1c(N2CCC(F)C2)c(=O)c1=O (centres unmarked) [Compound 55, 3-(3-fluoropyrrolidin-1-yl)-4-(methyl(4-(5-(trifluoromethyl)-1,2,4-oxadiazol-3-yl)benzyl)amino)cyclobut-3-ene-1,2-dione]
- pest or weed control at 500 ppm [2]: ≥ 70%

Structure (SMILES): C=CCNc1c(N(C)Cc2ccc(-c3noc(C(F)(F)F)n3)cc2)c(=O)c1=O [Compound 56, 3-(allylamino)-4-(methyl(4-(5-(trifluoromethyl)-1,2,4-oxadiazol-3-yl)benzyl)amino)cyclobut-3-ene-1,2-dione]
- pest or weed control at 500 ppm [2]: ≥ 70%
